These are literature values, as cited in patent publication US20090196894A1, “Self Tanning Composition” (priority 2006, published 2009).

The conditions of the data set: over the entire pH range, among the investigated hydroxyflavones.

In the case of `O=c1c(O)c(-c2ccc(O)c(O)c2)oc2cc(O)cc(O)c12` [quercetin, 3,3′,4′,5,7-pentahydrooxyflavone], the antioxidative effect entry is recorded as “highest activity”.
